Measured values reported in article PMC6379670, “An ultra-high affinity ligand of HIV-1 TAR reveals the RNA structure recognized by P-TEFb” (Nucleic Acids Research, 2018).
Like-named read-outs stand apart in the source and are kept apart here. Non-standard residues stand in square brackets, D forms with d. Residues, ends and D or L forms follow the SMILES beside them. Orn = NCCC[C@H](N)C(=O)O; Dab = NCC[C@H](N)C(=O)O

Target: HIV-1 TAR RNA
Assay type: binding
Details: EMSA
Method: Electro Mobility Shift Assays (EMSA) and 2-aminopurine fluorescence ([35]) were used to measure peptide binding. For EMSA, all RNAs were 5′-dephosphorylated ([25],[26]) and 5′-rephosphorylated using T4 Polynucleotide Kinase (PNK); shifts were performed and analyzed as previously described ([14]). The P-TEFb/Tat1:57/AFF4 binding assays were run as described ([11]), with protein samples generously donated by Drs Ursula Schulze-Gahmen and James Hurley, but binding buffers contained 250× fold excess yeast tRNA. JB181-bound samples were prepared with 3× excess labeled HIV-TAR prior to titration with the pre-formed P-TEFb/Tat1:57/AFF4 complex.
Fig. S1. a) HIV-1 TAR, BIV TAR and 7SK-SL4 RNAs have similar secondary structures, but the JB181 peptide discriminates between them. […]
tightly than BIV TAR (3.3 nM) or 7SK (>3 μM) RNAs. b) EMSA of representative JB-peptides with 32P radiolabeled HIV-1 TAR RNA ([RNA]=75pM). The peptide concentration increases from left to right, as indicated. The dissociation constant can be estimated by the peptide concentration where there is an approximate 1:1 ratio (as established by visual inspection) between free RNA and complex, since the RNA concentration is much lower than the KD.
(1 picture or pasted object on this page, not shown here)

[1] = 32P radiolabeled HIV-1 TAR RNA, [RNA]=75pM, Table 1, read-out: K D (HIV)
[2] = positional scanning library, Table S1, with tRNA, read-out: Kd (nM) w/tRNA

CC[C@H](C)[C@@H]1NC(=O)[C@H](CCCNC(=N)N)NC(=O)[C@H](CCCNC(=N)N)NC(=O)CNC(=O)[C@H](CCCCN)NC(=O)[C@H](CCCNC(=N)N)NC(=O)[C@H]([C@@H](C)O)NC(=O)[C@H](CCCNC(=N)N)NC(=O)[C@H](C(C)C)NC(=O)[C@H](CCCN)NC(=O)[C@@H]2CCCN2C(=O)[C@H]2CCCN2C(=O)[C@H]([C@@H](C)CC)NC(=O)[C@H](CCCNC(=N)N)NC1=O [JB58] (cyclo([Orn]VRTRKGRRIRI[dP]P))
Kd [1]: 3 ± 0.3 nM

CC[C@H](C)[C@@H]1NC(=O)[C@H](CCCNC(=N)N)NC(=O)[C@H](CCCNC(=N)N)NC(=O)CNC(=O)[C@H](CCCCN)NC(=O)[C@H](CCCNC(=N)N)NC(=O)[C@H]([C@@H](C)O)NC(=O)[C@H](CCCNC(=N)N)NC(=O)[C@H](C(C)C)NC(=O)[C@H](CCN)NC(=O)[C@@H]2CCCN2C(=O)[C@H]2CCCN2C(=O)[C@H]([C@@H](C)CC)NC(=O)[C@H](CCCNC(=N)N)NC1=O [JB59] (cyclo([Dab]VRTRKGRRIRI[dP]P))
Kd [1]: 1 ± 0.3 nM

CC[C@H](C)[C@@H]1NC(=O)[C@H](CCCNC(=N)N)NC(=O)[C@H](CCCNC(=N)N)NC(=O)CNC(=O)[C@H](CCCCN)NC(=O)[C@H](CCCNC(=N)N)NC(=O)[C@H]([C@@H](C)O)NC(=O)[C@H](CCCNC(=N)N)NC(=O)[C@H](C(C)C)NC(=O)[C@H](CCN)NC(=O)[C@@H]2CCCN2C(=O)[C@H]2CCCN2C(=O)[C@H](CC(C)C)NC(=O)[C@H](CCCNC(=N)N)NC1=O [JB185] (cyclo([Dab]VRTRKGRRIRL[dP]P))
Kd [1]: 0.5 ± 0.1 nM

CC[C@H](C)[C@@H]1NC(=O)[C@H](CCCNC(=N)N)NC(=O)[C@H](CCCNC(=N)N)NC(=O)CNC(=O)[C@H](CCCCN)NC(=O)[C@H](CCCNC(=N)N)NC(=O)[C@H]([C@@H](C)O)NC(=O)[C@H](CCCNC(=N)N)NC(=O)[C@H](C(C)C)NC(=O)[C@H](CCC(N)=O)NC(=O)[C@@H]2CCCN2C(=O)[C@H]2CCCN2C(=O)[C@H]([C@@H](C)CC)NC(=O)[C@H](CCCNC(=N)N)NC1=O [JB-61] (cyclo(QVRTRKGRRIRI[dP]P))
Kd [2]: > 1000 nM

CC[C@H](C)[C@@H]1NC(=O)[C@H](CCCNC(=N)N)NC(=O)[C@H](CCCNC(=N)N)NC(=O)CNC(=O)[C@H](CCCCN)NC(=O)[C@H](CCCNC(=N)N)NC(=O)[C@H]([C@@H](C)O)NC(=O)[C@H](CCCNC(=N)N)NC(=O)[C@H](CC(=O)O)NC(=O)[C@H](CCCNC(=N)N)NC(=O)[C@@H]2CCCN2C(=O)[C@H]2CCCN2C(=O)[C@H]([C@@H](C)CC)NC(=O)[C@H](CCCNC(=N)N)NC1=O [JB-64] (cyclo(RDRTRKGRRIRI[dP]P))
Kd [2]: > 1000 nM

CC[C@H](C)[C@@H]1NC(=O)[C@H](CCCNC(=N)N)NC(=O)[C@H](CCCNC(=N)N)NC(=O)CNC(=O)[C@H](CCCCN)NC(=O)[C@H](CCC(N)=O)NC(=O)[C@H]([C@@H](C)O)NC(=O)[C@H](CCCNC(=N)N)NC(=O)[C@H](C(C)C)NC(=O)[C@H](CCCNC(=N)N)NC(=O)[C@@H]2CCCN2C(=O)[C@H]2CCCN2C(=O)[C@H]([C@@H](C)CC)NC(=O)[C@H](CCCNC(=N)N)NC1=O [JB-67] (cyclo(RVRTQKGRRIRI[dP]P))
Kd [2]: > 1000 nM

CC[C@H](C)[C@@H]1NC(=O)[C@H](CCCNC(=N)N)NC(=O)[C@H](CCCNC(=N)N)NC(=O)CNC(=O)[C@H](CCCCN)NC(=O)[C@H](Cc2ccc(O)cc2)NC(=O)[C@H]([C@@H](C)O)NC(=O)[C@H](CCCNC(=N)N)NC(=O)[C@H](C(C)C)NC(=O)[C@H](CCCNC(=N)N)NC(=O)[C@@H]2CCCN2C(=O)[C@H]2CCCN2C(=O)[C@H]([C@@H](C)CC)NC(=O)[C@H](CCCNC(=N)N)NC1=O [JB-68] (cyclo(RVRTYKGRRIRI[dP]P))
Kd [2]: > 1000 nM

CC[C@H](C)[C@@H]1NC(=O)[C@H](CCCNC(=N)N)NC(=O)[C@H](Cc2ccc(O)cc2)NC(=O)CNC(=O)[C@H](CCCCN)NC(=O)[C@H](CCCNC(=N)N)NC(=O)[C@H]([C@@H](C)O)NC(=O)[C@H](CCCNC(=N)N)NC(=O)[C@H](C(C)C)NC(=O)[C@H](CCCNC(=N)N)NC(=O)[C@@H]2CCCN2C(=O)[C@H]2CCCN2C(=O)[C@H]([C@@H](C)CC)NC(=O)[C@H](CCCNC(=N)N)NC1=O [JB-69] (cyclo(RVRTRKGYRIRI[dP]P))
Kd [2]: > 1000 nM

CC[C@H](C)[C@@H]1NC(=O)[C@H](CCCNC(=N)N)NC(=O)[C@H](Cc2c[nH]c3ccccc23)NC(=O)CNC(=O)[C@H](CCCCN)NC(=O)[C@H](CCCNC(=N)N)NC(=O)[C@H]([C@@H](C)O)NC(=O)[C@H](CCCNC(=N)N)NC(=O)[C@H](C(C)C)NC(=O)[C@H](CCCNC(=N)N)NC(=O)[C@@H]2CCCN2C(=O)[C@H]2CCCN2C(=O)[C@H]([C@@H](C)CC)NC(=O)[C@H](CCCNC(=N)N)NC1=O [JB-70] (cyclo(RVRTRKGWRIRI[dP]P))
Kd [2]: > 1000 nM

CC[C@H](C)[C@@H]1NC(=O)[C@H](CCCCN)NC(=O)[C@H](CCCNC(=N)N)NC(=O)CNC(=O)[C@H](CCCCN)NC(=O)[C@H](CCCNC(=N)N)NC(=O)[C@H]([C@@H](C)O)NC(=O)[C@H](CCCNC(=N)N)NC(=O)[C@H](C(C)C)NC(=O)[C@H](CCCNC(=N)N)NC(=O)[C@@H]2CCCN2C(=O)[C@H]2CCCN2C(=O)[C@H]([C@@H](C)CC)NC(=O)[C@H](CCCNC(=N)N)NC1=O [JB-71] (cyclo(RVRTRKGRKIRI[dP]P))
Kd [2]: > 1000 nM

CC[C@H](C)[C@@H]1NC(=O)[C@H](CCCNC(=N)N)NC(=O)[C@H](CCCNC(=N)N)NC(=O)CNC(=O)[C@H](CCCCN)NC(=O)[C@H](CCCNC(=N)N)NC(=O)[C@H]([C@@H](C)O)NC(=O)[C@@H](CCCNC(=N)N)NC(=O)[C@H](C(C)C)NC(=O)[C@H](CCCNC(=N)N)NC(=O)[C@@H]2CCCN2C(=O)[C@H]2CCCN2C(=O)[C@H]([C@@H](C)CC)NC(=O)[C@H](CCCNC(=N)N)NC1=O [JB-72] (cyclo(RV[dR]TRKGRRIRI[dP]P))
Kd [2]: > 1000 nM

CC[C@H](C)[C@@H]1NC(=O)[C@H](Cc2ccc(O)cc2)NC(=O)[C@H](CCCNC(=N)N)NC(=O)CNC(=O)[C@H](CCCCN)NC(=O)[C@H](CCCNC(=N)N)NC(=O)[C@H]([C@@H](C)O)NC(=O)[C@H](CCCNC(=N)N)NC(=O)[C@H](C(C)C)NC(=O)[C@H](CCCNC(=N)N)NC(=O)[C@@H]2CCCN2C(=O)[C@H]2CCCN2C(=O)[C@H]([C@@H](C)CC)NC(=O)[C@H](CCCNC(=N)N)NC1=O [JB-73] (cyclo(RVRTRKGRYIRI[dP]P))
Kd [2]: > 1000 nM

CC[C@H](C)[C@@H]1NC(=O)[C@H](Cc2c[nH]c3ccccc23)NC(=O)[C@H](CCCNC(=N)N)NC(=O)CNC(=O)[C@H](CCCCN)NC(=O)[C@H](CCCNC(=N)N)NC(=O)[C@H]([C@@H](C)O)NC(=O)[C@H](CCCNC(=N)N)NC(=O)[C@H](C(C)C)NC(=O)[C@H](CCCNC(=N)N)NC(=O)[C@@H]2CCCN2C(=O)[C@H]2CCCN2C(=O)[C@H]([C@@H](C)CC)NC(=O)[C@H](CCCNC(=N)N)NC1=O [JB-74] (cyclo(RVRTRKGRWIRI[dP]P))
Kd [2]: > 1000 nM

CC[C@H](C)[C@@H]1NC(=O)[C@H](CCCNC(=N)N)NC(=O)[C@H](CCCNC(=N)N)NC(=O)CNC(=O)[C@H](CCCCN)NC(=O)[C@H](CCCNC(=N)N)NC(=O)[C@H]([C@@H](C)O)NC(=O)[C@H](CCCNC(=N)N)NC(=O)[C@H](C(C)C)NC(=O)[C@H](CCCNC(=N)N)NC(=O)[C@@H]2CCCN2C(=O)[C@H]2CCCN2C(=O)[C@H]([C@@H](C)CC)NC(=O)[C@H](Cc2c[nH]cn2)NC1=O [JB-77] (cyclo(RVRTRKGRRIHI[dP]P))
Kd [2]: > 1000 nM
